Data as given in ChEMBL document CHEMBL3046762, “Synthesis and biological evaluation of 2-amino-5-sulfanyl-1,3,4-thiadiazole derivatives as antidepressant, anxiolytics and anticonvulsant agents” (2011).
Activity calls are given as the source filed them. The calls are words filed in the database; no cut-off is given here.

Key:
Mus musculus [1] = assay: Antidepressant activity in Mus musculus (mouse) assessed as increase in mobile phase at 30 mg/kg, ip measured after 30 min by tail suspension test; type: functional; conditions: route intraperitoneal
Rattus norvegicus [2] = assay: Anticonvulsant activity in Rattus norvegicus Wistar albino (rat) assessed as inhibition of pentyleneterazole-induced clonic convulsion measured as onset of convulsion at 30 mg/kg, ip pretreated 30 min prior to pentylenetetrazole challenge (reference value: 48.25 +/- 0.01 sec); type: functional; conditions: route intraperitoneal
Rattus norvegicus [3] = assay: Anticonvulsant activity in Rattus norvegicus Wistar albino (rat) assessed as reduction in pentyleneterazole-induced mortality at 30 mg/kg, ip pretreated 30 min prior to pentylenetetrazole challenge; type: functional, organism-based; design: dose 30 mg/kg
Rattus norvegicus [4] = assay: Anticonvulsant activity in Rattus norvegicus Wistar albino (rat) assessed as duration of tonic hind limb extensor at 30 mg/kg, ip measured after 30 min by maximal electroshock-induced convulsion test (reference value: 15.71 +/- 0.01 sec); type: functional, Hindlimb; conditions: route intraperitoneal
Mus musculus [5] = assay: Anxiolytic activity in Mus musculus Swiss (mouse) assessed as time spent in light chamber at 30 mg/kg, ip measured after 30 min by light and dark model test (reference value: 130.2 +/- 0.01 sec); type: functional; conditions: route intraperitoneal
Mus musculus [6] = assay: Antidepressant activity in Mus musculus (mouse) assessed as decrease in immobility at 30 mg/kg, ip measured after 30 min by despair swim test; type: functional; conditions: 0.5 h, route intraperitoneal
Mus musculus [7] = assay: Anxiolytic activity in Mus musculus balb/cj (mouse) assessed as time spent in open arm at 30 mg/kg, ip measured after 30 min by elevated pluze maze test (reference value: 12.25 +/- 0.02 sec); type: functional; conditions: route intraperitoneal
Rattus norvegicus [8] = assay: Anticonvulsant activity in Rattus norvegicus Wistar albino (rat) assessed as protection against maximal electroshock-induced convulsion at 30 mg/kg, ip measured after 30 min; type: functional; conditions: route intraperitoneal
Mus musculus [9] = assay: Anxiolytic activity in Mus musculus balb/cj (mouse) assessed as preference to open arm at 30 mg/kg, ip measured after 30 min by elevated pluze maze test; type: functional; conditions: route intraperitoneal
Rattus norvegicus [10] = assay: Anticonvulsant activity in Rattus norvegicus Wistar albino (rat) assessed as reduction in pentyleneterazole-induced mortality at 4 mg/kg, ip pretreated 30 min prior to pentylenetetrazole challenge; type: functional, organism-based; design: dose 4 mg/kg
Rattus norvegicus [11] = assay: Anticonvulsant activity in Rattus norvegicus Wistar albino (rat) assessed as protection against maximal electroshock-induced convulsion at 25 mg/kg, ip measured after 30 min; type: functional; conditions: route intraperitoneal
Rattus norvegicus [12] = assay: Anticonvulsant activity in Rattus norvegicus Wistar albino (rat) assessed as duration of tonic hind limb extensor at 25 mg/kg, ip measured after 30 min by maximal electroshock-induced convulsion test; type: functional, organism-based; design: dose 25 mg/kg; conditions: Hindlimb
Mus musculus [13] = assay: Antidepressant activity in Mus musculus (mouse) assessed as decrease in immobility at 15 mg/kg, ip measured after 30 min by despair swim test; conditions: 0.5 h, read-out: INH
Mus musculus [14] = assay: Anxiolytic activity in Mus musculus balb/cj (mouse) assessed as time spent in open arm at 2 mg/kg, ip measured after 30 min by elevated pluze maze test (reference value: 12.25 +/- 0.02 sec); type: functional; conditions: route intraperitoneal

SMILES	Activity (Mus musculus [1]) [%]	Time (Rattus norvegicus [2]) [s]	Activity (Rattus norvegicus [3])	Time (Rattus norvegicus [4]) [s]	Time (Mus musculus [5]) [s]	inhibition in vivo at 30 mg/kg (Mus musculus [6]) [%]	Time (Mus musculus [7]) [s]	Activity (Rattus norvegicus [8]) [%]	Activity (Mus musculus [9]) [%]	Activity (Rattus norvegicus [10])	Activity (Rattus norvegicus [11]) [%]	Activity (Rattus norvegicus [12])	inhibition in vivo at 15 mg/kg (Mus musculus [13]) [%]	Time (Mus musculus [14]) [s]
Cc1ccc(Nc2nnc(Sc3ccc(S(=O)(=O)Cl)cc3)s2)cc1	15.19	101.26	Active	8.01	169.25	29.2	22.2	16.66	7.58					
O=S(=O)(Cl)c1ccc(Nc2nnc(Sc3ccc(S(=O)(=O)Cl)cc3)s2)cc1	10.09	125.2	Active	8.5	172.5	25.9	27.63	0	7.9					
O=S(=O)(Cl)c1ccc(Sc2nnc(Nc3ccc(Cl)cc3)s2)cc1	15.68	63.6	Active	7.55	151.5	23.9	30.01	16.66	9.75					
NS(=O)(=O)c1ccc(Sc2nnc(Nc3ccc(C(Cl)(Cl)Cl)cc3)s2)cc1	16.39	106.7	Active	6.96	162	25	24.2	16.66	7.85					
NS(=O)(=O)c1ccc(Sc2nnc(Nc3ccc(S(=O)(=O)Cl)cc3)s2)cc1	40.58	175.2	Active	4.69	180.25	50.4	45.93	50	17.2					
NS(=O)(=O)c1ccc(Nc2nnc(Sc3ccc(S(N)(=O)=O)cc3)s2)cc1	10.06			8.25	133.2	25.2	26.64	0	6.65					
CN1C(=O)CN=C(c2ccccc2)c2cc(Cl)ccc21										Active				
O=C1NC(=O)C(c2ccccc2)(c2ccccc2)N1 [PHENYTOIN]											100	Active		
NS(=O)(=O)c1ccc(Sc2nnc(Nc3ccc(Br)cc3)s2)cc1	15.68	71.9	Active	8.01	162.3	27.2	29.26	33.33	8.01					
O=S(=O)(Cl)c1ccc(Sc2nnc(Nc3ccc(F)cc3)s2)cc1	21.51	101.26	Active	8.25	166.3	22.8	25.26	0	10.54					
NS(=O)(=O)c1ccc(Sc2nnc(Nc3ccc(F)cc3)s2)cc1	40.31	171.25	Active	4.5	185.9	50.5	46.31	66.66	18.01					
NS(=O)(=O)c1ccc(Sc2nnc(Nc3ccc(Cl)cc3)s2)cc1	33.33	151.3	Active	5.17	178.2	29.2	45.51	50	16.35					
Cc1ccc(Nc2nnc(Sc3ccc(S(N)(=O)=O)cc3)s2)cc1	42.21	170.26	Active	4.52	190.25	51.5	45.69	50	18.25					
O=S(=O)(Cl)c1ccc(Sc2nnc(Nc3ccc(Br)cc3)s2)cc1	20.57	70.25	Active	7.63	159.3	30.7	25.2	0	9.25					
O=S(=O)(Cl)c1ccc(Sc2nnc(Nc3ccc(C(F)(F)F)cc3)s2)cc1	45.97	180.25	Active	4.42	192	53.5	47.92	66.66	18.92					
O=S(=O)(Cl)c1ccc(Sc2nnc(Nc3ccc(C(Cl)(Cl)Cl)cc3)s2)cc1	19.16	99.9	Active	7.01	170.5	30.2	26.2	16.66	8.75					
NS(=O)(=O)c1ccc(Sc2nnc(Nc3ccc(C(F)(F)F)cc3)s2)cc1	31.29	126.2	Active	7.37	151.26	27.9	23.72	33.33	8.92					
CNCCC(Oc1ccc(C(F)(F)F)cc1)c1ccccc1.Cl (stereo not drawn) [FLUOXETINE HYDROCHLORIDE]													58.6	60.01
